Laboratory results taken from patent US8101605B2, “SHIP1 modulators and methods related thereto” (Aquinox Pharmaceuticals Inc., priority 2009, dated 2012).

Legend:
[1] = biological target: T1, His-hSHIP1 enzyme (Homo sapiens, UniProt Q92835); test: His-hSHIP1 phosphatase activity assay (IP4 substrate, Biomol Green); format: biochemical; details: percentage increase relative to background; concentrations ≦300 μM
T1 sequence (Q92835 1-1189): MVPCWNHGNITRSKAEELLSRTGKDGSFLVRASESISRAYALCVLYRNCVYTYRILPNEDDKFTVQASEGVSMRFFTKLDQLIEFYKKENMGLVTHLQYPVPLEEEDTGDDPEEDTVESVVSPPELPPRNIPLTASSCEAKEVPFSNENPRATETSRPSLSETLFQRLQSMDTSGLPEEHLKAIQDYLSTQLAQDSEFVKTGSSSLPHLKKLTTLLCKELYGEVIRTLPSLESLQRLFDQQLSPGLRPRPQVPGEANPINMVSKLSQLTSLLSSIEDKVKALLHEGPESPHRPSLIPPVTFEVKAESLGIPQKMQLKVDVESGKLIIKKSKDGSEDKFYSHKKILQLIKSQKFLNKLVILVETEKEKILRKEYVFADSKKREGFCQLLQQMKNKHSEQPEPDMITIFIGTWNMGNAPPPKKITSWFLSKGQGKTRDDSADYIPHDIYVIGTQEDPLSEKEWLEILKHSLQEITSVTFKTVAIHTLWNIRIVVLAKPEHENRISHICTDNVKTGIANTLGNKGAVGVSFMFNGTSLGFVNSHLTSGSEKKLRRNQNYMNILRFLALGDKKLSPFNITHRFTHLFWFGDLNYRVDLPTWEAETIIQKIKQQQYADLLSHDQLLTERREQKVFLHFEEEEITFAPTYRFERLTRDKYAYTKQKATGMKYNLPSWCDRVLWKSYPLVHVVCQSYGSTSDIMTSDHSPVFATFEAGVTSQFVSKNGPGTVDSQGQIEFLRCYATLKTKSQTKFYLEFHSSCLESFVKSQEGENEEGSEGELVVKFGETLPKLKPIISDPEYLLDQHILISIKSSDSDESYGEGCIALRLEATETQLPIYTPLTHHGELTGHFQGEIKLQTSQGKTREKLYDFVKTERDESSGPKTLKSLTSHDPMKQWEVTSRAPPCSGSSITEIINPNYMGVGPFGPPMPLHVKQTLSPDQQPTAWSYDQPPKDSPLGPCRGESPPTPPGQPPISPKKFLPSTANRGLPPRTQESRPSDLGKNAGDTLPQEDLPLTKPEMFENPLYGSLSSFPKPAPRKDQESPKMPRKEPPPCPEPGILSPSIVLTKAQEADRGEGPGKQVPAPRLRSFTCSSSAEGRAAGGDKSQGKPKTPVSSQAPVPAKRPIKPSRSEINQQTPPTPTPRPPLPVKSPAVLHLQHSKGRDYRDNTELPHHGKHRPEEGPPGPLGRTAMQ
Description: Test compounds were dissolved in 95% ethanol to form stock solutions. Before screening, the stock solutions were diluted with Phosphatase Assay Buffer (20 mM Tris-HCL, 10 mM MgCl2 pH 7.5, 0.02% Tween 20) to form working assay solutions that contained 10% ethanol. The assay was carried out on 96-well microtiter plates using a modified procedure of that reported by Ong et al., Blood 110, 1942-1949, 2007 and Yang et al., Org Lett 7, 1073-1076, 2005, both of which references are incorporated herein by reference in their entirety.
Each reaction contained 5 μL of His-hSHIP1 enzyme (15-20 ng), 10 μL of the substrate, 1,3,4,5-inositol tetrakisphosphate (IP4; 50 μM final), 5 μL of Phosphatase Assay Buffer, and 5 μL of test compound at various concentrations in 10% ethanol (0-300 μM final). Control blanks were also prepared by replacing His-hSHIP1 enzyme, IP4, or test compounds with Phosphatase Assay Buffer. After adding the reaction components in a 96-well microtiter plate on ice, the reaction was mixed by briefly shaking the plate vigorously. The reaction was then incubated at 37° C. for 15 min with gentle shaking followed by addition of 100 μL of Biomol Green Reagent (BIOMOL, PA, USA) to terminate the reaction. The free phosphate released from IP4 by His-hSHIP1 bound to the Biomol Green Reagent, turning the solution green in colour. After incubating the mixture for 20 min at room temperature for colour development, the absorbance was read with a SpectraMax Plus 96-well plate reader (Molecular Devices, Sunnyvale, Calif., USA) at a wavelength of 650 nm.
Percent (%) activation in Table 2 is expressed as a percentage increase relative to background. Scoring is expressed as follows: + (<50%); ++ (≧50% but <65%); +++ (≧65%).

[2] = system: Akt phosphorylation in Jurkat (PTEN−/SHIP1−) cells; test: Akt phosphorylation in IGF-1 stimulated Jurkat lymphocytes (western blot); format: cell-based; parameters: key: +: inhibits Akt phosphorylation at 10 μM; −: no effect on Akt phosphorylation at 10 μM; details: 10 μM; IGF-1 stimulation
Description: (§1) Jurkat (PTEN−/SHIP1−) or Molt-4 (PTEN−/SHIP1+) cells were starved in serum free RPMI for overnight. In a 15 mL conical tube, 2-3 million serum starved cells (1 million cells per mL) were treated with various concentrations of test compound (0.1, 1, or 10 μM final in 0.1% DMSO) for 30 min at 37° C. followed by stimulation with 100 ng/mL of IGF-1 for 1 hour at 37° C. After stimulation, cells were washed once with ice-cold DPBS and lysed with Lysis Buffer (20 mM Tris-HCl, pH 7.5, 140 mM NaCl, 1% NP-40, Complete Mini Protease Inhibitor Cocktail, 10 mM NaF, 1 mM Na3VO4, 1 mM β-glycerolphosphate) on ice for 30 min with vortexing every 10 min. Samples were then centrifuged at 13,000 rpm for 20 min, and supernatants were collected as total cell lysate samples. Protein concentration was determined using bicinchonic acid assay, and about 15 μg of total protein from each sample was loaded and separated on a 4-12% Tris-Glycine gel. After SDS-PAGE, proteins were transferred from the gel to a nitrocellulose membrane. The membrane was blocked in 5% BSA in PBS containing 0.1% Tween-20 (PBS-T) for 1 hour at room temperature before probing with primary antibodies for overnight at 4° C. The following antibodies were used: mouse anti-SHIP1 (1:500 dilution; Santa Cruz, Calif., USA), rabbit anti-phospho-Akt(Ser473) (1:1000 dilution; Cell Signaling Technologies, MA, USA), rabbit anti-Akt (1:1000; Cell Signaling Technologies, MA, USA), and rabbit anti-actin (1:2000; Cell Signaling Technologies, MA, USA). The membrane was then incubated with goat anti-rabbit or anti-mouse secondary antibodies (1:3000) for 1 hour at room temperature. Target proteins on the membrane were detected with ECL solution and exposed on a film.
(§2) Scoring in Table 3 is expressed as follows: + (inhibits Akt phosphorylation at 10 μM); − (no effect on Akt phosphorylation at 10 μM).

[3] = system: Akt phosphorylation in Molt-4 (PTEN−/SHIP1+) cells; test: Akt phosphorylation in IGF-1 stimulated Molt-4 lymphocytes (western blot); format: cell-based; parameters: key: +: inhibits Akt phosphorylation at 10 μM; −: no effect on Akt phosphorylation at 10 μM; details: 10 μM; IGF-1 stimulation
Description: as §1, §2

[4] = system: OPM2 cells; test: Inhibition of OPM2 proliferation (BrdU ELISA); format: cell-based; details: Homo sapiens, OPM-2, 72 hours, read-out: Scoring: % inhibition of OPM2 proliferation
Description: Test compounds were dissolved in 100% DMSO to form stock solutions. Prior to screening, the stock solutions were diluted with complete media (RPMI 1640 containing 10% fetal calf serum, 2 mM L-glutamine and 50 U/mL each of penicillin and streptomycin) to form working assay solutions that contain 0.2% DMSO. The assay was initiated by adding 30,000 OPM2 cells (in 50 μL) to 50 μL of representative compounds at concentrations ranging from 0.03 to 30 μM. The cells were incubated for 72 hours in a humidified CO2 incubator with the addition of 10 μM BrdU for the final 6 hours according to the directions from the Roche BrdU Cell Proliferation ELISA kit used to detect proliferation (Roche, Cat. No. 11 647 229 001). OPM2 cells incubated in 0.1% DMSO in complete media were used as a negative control and the PI3Kα Inhibitor 2 (3-[4-(4-morpholinyl)thieno[3,2-d]pyrimidin-2-yl-phenol, Cayman Chemical, Cat. No. 10010177) was used as a positive control for inhibition of proliferation. At the end of the incubation, the plate containing the labeled cells was centrifuged, the supernatant removed and the cell pellets dried at 60° C. for 1 hour and stored at 4° C. until further analysis. Analysis of BrdU incorporation was done according to the manufacturer's instructions.

Row | Structure (SMILES) | Scoring: percent (%) activation of His-hSHIP1 enzyme [1] | Akt phosphorylation, Jurkat (SHIP1−) [2] | Akt phosphorylation, Molt-4 (SHIP1+) [3] | inhibition at 30 µM [4] [%]
1 | CC1(C)CCC[C@]2(C)[C@H]3COc4cc(O)cc(O)c4[C@]3(C)CC[C@@H]12 [Compound No. 50, (1R,10R,11S,16S)-1,11,15,15-tetramethyl-8-oxatetracyclo[8.8.0.0^2,7.0^11,16]octadeca-2,4,6-triene-3,5-diol] | + (<50%) | − | + | 
2 | CNC(=O)c1cc(O)c2c(c1)S(=O)(=O)C[C@@H]1[C@@]3(C)CCCC(C)(C)[C@@H]3CC[C@@]21C [Compound No. 62] | ++ (≧50% but <65%) |  |  | 25 to 75
3 | COc1cc(O)cc2c1[C@]1(C)CC[C@H]3C(C)(C)CCC[C@]3(C)[C@H]1CS2(=O)=O [compound 57, (1R,10R,11S,16S)-5-hydroxy-3-methoxy-1,11,15,15-tetramethyl-8λ^6-thiatetracyclo[8.8.0.0^2,7.0^11,16]octadeca-2,4,6-triene-8,8-dione] | + (<50%) |  |  | ≥ 75
4 | CC1(C)CCC[C@]2(C)[C@H]3CSc4cc(O)cc(C#N)c4[C@]3(C)CC[C@@H]12 [compound 78, (1R,10R,11S,16S)-5-hydroxy-1,11,15,15-tetramethyl-8-thiatetracyclo[8.8.0.0^2,7.0^11,16]octadeca-2,4,6-triene-3-carbonitrile] | + (<50%) |  |  | ≥ 75
5 | CNC(=O)c1cc(OC)c2c(c1)S(=O)(=O)C[C@@H]1[C@@]3(C)CCCC(C)(C)[C@@H]3CC[C@@]21C [compound 81, (1R,10R,11S,16S)-3-methoxy-N,1,11,15,15-pentamethyl-8,8-dioxo-8λ^6-thiatetracyclo[8.8.0.0^2,7.0^11,16]octadeca-2,4,6-triene-5-carboxamide] | + (<50%) |  |  | 25 to 75
6 | CC1(C)CCC[C@]2(C)[C@H]3CS(=O)(=O)c4cc(C(=O)N5CCOCC5)cc(O)c4[C@]3(C)CC[C@@H]12 [compound 87, (1R,10R,11S,16S)-3-hydroxy-1,11,15,15-tetramethyl-5-[(morpholin-4-yl)-carbonyl]-8λ^6-thiatetracyclo[8.8.0.0^2,7.0^11,16]-octadeca-2,4,6-triene-8,8-dione] | ++ (≧50% but <65%) |  |  | 25 to 75
7 | CN1CCN(C(=O)c2cc(O)c3c(c2)S(=O)(=O)C[C@@H]2[C@@]4(C)CCCC(C)(C)[C@@H]4CC[C@@]32C)CC1 [compound 89, (1R,10R,11S,16S)-3-hydroxy-1,11,15,15-tetramethyl-5-[(4-methylpiperazin-1-yl)-carbonyl]-8λ^6-thiatetracyclo[8.8.0.0^2,7.0^11,16]octadeca-2,4,6-triene-8,8-dione] | + (<50%) |  |  | ≥ 75
8 | COC(=O)CNC(=O)c1cc(O)c2c(c1)S(=O)(=O)C[C@@H]1[C@@]3(C)CCCC(C)(C)[C@@H]3CC[C@@]21C [compound 92, methyl 2-{[(1R,10R,11S,16S)-3-hydroxy-1,11,15,15-tetramethyl-8,8-dioxo-8λ^6-thiatetracyclo[8.8.0.0^2,7.0^11,16]octadeca-2,4,6-trien-5-yl]formamido}acetate] | + (<50%) |  |  | ≥ 75
9 | CC1(C)CCC[C@]2(C)[C@H]3CS(=O)(=O)c4cc(C(=O)N5CCNCC5)cc(O)c4[C@]3(C)CC[C@@H]12 [compound 102, (1R,10R,11S,16S)-3-hydroxy-1,11,15,15-tetramethyl-5-[(piperazin-1-yl)carbonyl]-8λ^6-thiatetracyclo[8.8.0.0^2,7.0^11,16]-octadeca-2,4,6-triene-8,8-dione] | + (<50%) |  |  | ≥ 75
10 | COc1cc(OCC(=O)N2CCOCC2)cc2c1[C@]1(C)CC[C@H]3C(C)(C)CCC[C@]3(C)[C@H]1CS2(=O)=O [compound 110, (1R,10R,11S,16S)-3-methoxy-1,11,15,15-tetramethyl-5-[2-(morpholin-4-yl)-2-oxoethoxy]-8^6-thiatetracyclo[8.8.0.0^2,7.0^11,16]octadeca-2,4,6-triene-8,8-dione] |  |  |  | < 25
11 | COc1cc(OC)c2c(c1N)S(=O)(=O)C[C@@H]1[C@@]3(C)CCCC(C)(C)[C@@H]3CC[C@@]21C [compound 112, (1R,10R,11S,16S)-6-amino-3,5-dimethoxy-1,11,15,15-tetramethyl-8^6-thiatetracyclo[8.8.0.0^2,7.0^11,16]octadeca-2,4,6-triene-8,8-dione] |  |  |  | ≥ 75
